Test results from the SangsterLogP compilation.

logP | Compound
0.74 | NC(=O)NN=Cc1ccc([N+](=O)[O-])o1
1.62 | Cc1ccccc1CN
2.09 | Cc1cc(C)cc(N)c1
2.77 | C=C[C@H]1CN2CC[C@H]1C[C@@H]2[C@@H](O)c1ccnc2ccc(OC)cc12
0.4 | Nc1ccccn1
1.45 | CC(N)c1ccccc1 (centres undefined)
1.74 | Cc1cncc(C)c1
1.1 | NCc1ccccc1
2.17 | CC(=O)O[C@]1(C(=O)CO)CC[C@H]2[C@@H]3CCC4=CC(=O)CC[C@]4(C)[C@H]3[C@@H](O)C[C@@]21C
3.46 | CCCCNc1ccc(C(=O)OCCN(C)C)cc1
1.82 | Cc1cccc(CN)c1
1.58 | Cc1ccnc(C)c1
3.02 | CN1CCOC(c2ccccc2)c2ccccc2C1 (centres undefined)

Compound | logP
NS(=O)(=O)c1cc(C2(O)NC(=O)c3ccccc32)ccc1Cl (centres undefined) | 1.17
